Assay results from patent publication US20040110802A1, “Antibacterial benzoic acid derivatives” (priority 2002, published 2004).
Converted amounts (≈) assume the structure as drawn.

Test system: SAUR 9218
Test: MIC Test Method, standard agar dilution
Type: cell-based
Conditions: agar dilution, Mueller Hinton agar, incubated overnight at 35° C.; lowest concentration that inhibits visible growth; read-out: SAUR 9218 MIC
In short: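 Agar dilution in Mueller Hinton agar with serial 2-fold compound dilutions. Staphylococcus aureus strain 9218 spotted at approximately 10^4 to 10^5 cells per spot, incubated overnight at 35 °C; MIC (μg/ml) is the lowest concentration preventing visible growth.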

SMILES	MIC
O=C(Nc1ccc(Br)cc1C(=O)O)c1cc2ccccc2o1	8 µg/mL (≈ 22.2 µM)
Cc1sc(C(=O)Nc2ccc(Br)cc2C(=O)O)cc1S(=O)(=O)NC1Cc2ccccc2C1	8 µg/mL (≈ 14.9 µM)
CCCCCCSc1cnc(C(=O)Nc2ccc(C#N)cc2C(=O)O)cn1	0.125 µg/mL (≈ 0.325 µM)
O=C(Nc1ccc(Br)cc1C(=O)O)c1csc(S(=O)(=O)N2CCc3ccccc32)c1	2 µg/mL (≈ 3.94 µM)
N#Cc1ccc(NC(=O)c2ccc(SCCCOc3ccc(Br)cc3)nc2)c(C(=O)O)c1	0.125 µg/mL (≈ 0.244 µM)
Cn1c(C(=O)Nc2ccc(C#N)cc2C(=O)O)cc2cccc(NS(=O)(=O)CCCCl)c21	0.125 µg/mL (≈ 0.263 µM)
CSc1ccc(C(=O)Nc2ccc(C#N)cc2C(=O)O)cn1.Cl	4 µg/mL
N#Cc1ccc(NC(=O)c2cncc(-c3ccc(Cl)cc3)c2)c(C(=O)O)c1	> 128 µg/mL
N#Cc1ccc(NC(=O)c2cncc(-c3ccco3)c2)c(C(=O)O)c1	4 µg/mL (≈ 12 µM)
COc1ccc(-c2cnc(C(=O)Nc3ccc(C#N)cc3C(=O)O)cn2)c(OC)c1OC	> 128 µg/mL
O=C(Nc1ccc(Br)cc1C(=O)O)c1c[nH]c(SCc2ccccc2)n1	> 128 µg/mL
O=C(Nc1ccc(Br)cc1C(=O)O)c1csc(S(=O)(=O)NC2Cc3ccccc3C2)c1	8 µg/mL (≈ 15.3 µM)
Cc1sc(C(=O)Nc2ccc(C#N)cc2C(=O)O)cc1S(=O)(=O)N1CCN(c2ccc([N+](=O)[O-])cc2)CC1	4 µg/mL (≈ 7.2 µM)
N#Cc1ccc(NC(=O)c2noc3ccc(S(=O)(=O)Nc4ccccc4)cc23)c(C(=O)O)c1	0.015 µg/mL (≈ 0.0324 µM)
CCCC(C)Sc1ccc(C(=O)Nc2ccc(C#N)cc2C(=O)O)cn1 (stereo not shown)	0.125 µg/mL (≈ 0.338 µM)
Cc1ccccc1-c1cncc(C(=O)Nc2ccc(C#N)cc2C(=O)O)c1	8 µg/mL (≈ 22.4 µM)
N#Cc1ccc(NC(=O)c2cc(-c3ccccc3)on2)c(C(=O)O)c1	0.25 µg/mL (≈ 0.75 µM)
O=C(Nc1ccc(Br)cc1C(=O)O)c1cnc(Cl)c(Cl)c1	4 µg/mL (≈ 10.3 µM)
Cn1c(C(=O)Nc2cccc3cc(C(=O)Nc4ccc(C#N)cc4C(=O)O)[nH]c23)cc2ccccc21	0.125 µg/mL (≈ 0.262 µM)
N#Cc1ccc(NC(=O)c2cc(-c3ccccc3C(F)(F)F)on2)c(C(=O)O)c1	0.25 µg/mL (≈ 0.623 µM)
CCCN(CCC)S(=O)(=O)c1ccc2onc(C(=O)Nc3ccc(C#N)cc3C(=O)O)c2c1	0.25 µg/mL (≈ 0.531 µM)
Cn1c(C(=O)Nc2ccc(C#N)cc2C(=O)O)cc2cccc(OC3CCC3)c21	0.125 µg/mL (≈ 0.321 µM)
CCn1c(C(=O)Nc2ccc(C#N)cc2C(=O)O)cc2ccccc21	1 µg/mL (≈ 3 µM)
N#Cc1ccc(NC(=O)c2cccc3c2CCN(Cc2ccccc2)S3(=O)=O)c(C(=O)O)c1	8 µg/mL (≈ 17.3 µM)
N#Cc1ccc(NC(=O)c2cc(CCC(O)CO)on2)c(C(=O)O)c1 (stereo not shown)	8 µg/mL (≈ 23.2 µM)

SMILES	MIC
N#Cc1ccc(NC(=O)c2noc3ccc(NS(=O)(=O)c4ccccc4)cc23)c(C(=O)O)c1	0.125 µg/mL (≈ 0.27 µM)
CSCCOc1cccc2cc(C(=O)Nc3ccc(C#N)cc3C(=O)O)n(C)c12	0.25 µg/mL (≈ 0.611 µM)
CC(=O)Nc1cccc(-c2ccc3c(C(=O)Nc4ccc(C#N)cc4C(=O)O)noc3c2)c1	0.015 µg/mL (≈ 0.0341 µM)
COCCOCCOCC(=O)Nc1cccc2cc(C(=O)Nc3ccc(C#N)cc3C(=O)O)[nH]c12	4 µg/mL (≈ 8.33 µM)
N#Cc1ccc(NC(=O)c2noc3ccc(NC(=O)Cc4ccccc4)cc23)c(C(=O)O)c1	1 µg/mL (≈ 2.27 µM)
Cn1c(C(=O)Nc2ccc(C#N)cc2C(=O)O)cc2c(Br)ccc(N)c21	1 µg/mL (≈ 2.42 µM)
Cn1c(C(=O)Nc2ccc(C#N)cc2C(=O)O)cc2cccc(OCC(O)COCCOc3ccccc3)c21 (stereo not shown)	0.5 µg/mL (≈ 0.944 µM)
N#Cc1ccc(NC(=O)c2ccc3c(c2)OCO3)c(C(=O)O)c1	16 µg/mL (≈ 51.6 µM)
Cn1c(C(=O)Nc2ccc(C#N)cc2C(=O)O)cc2cccc(-c3ccc(C(C)(C)C)cc3)c21	4 µg/mL (≈ 8.86 µM)
Cn1cccc1-c1cnc(C(=O)Nc2ccc(Br)cc2C(=O)O)o1	2 µg/mL (≈ 5.13 µM)
CCC(=O)Nc1cccc2cc(C(=O)Nc3ccc(C#N)cc3C(=O)O)[nH]c12	2 µg/mL (≈ 5.31 µM)
CC(C)CSc1cnc(C(=O)Nc2ccc(C#N)cc2C(=O)O)cn1	0.25 µg/mL (≈ 0.701 µM)
CCN(CC)S(=O)(=O)c1ccc2onc(C(=O)Nc3ccc(Br)cc3C(=O)O)c2c1	0.25 µg/mL (≈ 0.504 µM)
CC(CC(=O)Nc1cccc2cc(C(=O)Nc3ccc(C#N)cc3C(=O)O)[nH]c12)CC(C)(C)C (stereo not shown)	0.5 µg/mL (≈ 1.09 µM)
N#Cc1ccc(NC(=O)c2cc3cc(OCc4ccccc4)ccc3[nH]2)c(C(=O)O)c1	16 µg/mL (≈ 38.9 µM)
Cc1cccc2cc(C(=O)Nc3ccc(C#N)cc3C(=O)O)[nH]c12	2 µg/mL (≈ 6.26 µM)
CCCCCCSc1ccc(C(=O)Nc2ccc(C#N)cc2C(=O)O)cn1	0.125 µg/mL (≈ 0.326 µM)
N#Cc1ccc(NC(=O)c2cc3cccc(NC(=O)Cc4ccccc4Cl)c3[nH]2)c(C(=O)O)c1	0.25 µg/mL (≈ 0.529 µM)
C=CCn1c(C(=O)Nc2ccc(C#N)cc2C(=O)O)cc2ccccc21	1 µg/mL (≈ 2.9 µM)
CCO/N=C1\CCn2c(C(=O)Nc3ccc(C#N)cc3C(=O)O)cc3cccc1c32	1 µg/mL (≈ 2.49 µM)
COc1cccc2cc(C(=O)Nc3ccc(C#N)cc3C(=O)O)oc12	4 µg/mL (≈ 11.9 µM)
Cn1c(C(=O)Nc2ccc(C#N)cc2C(=O)O)cc2c(Br)cc(Br)c(NC(=O)Cc3ccccc3)c21	2 µg/mL (≈ 3.28 µM)
CC(=O)c1ccccc1-c1ccc2onc(C(=O)Nc3ccc(C#N)cc3C(=O)O)c2c1	0.5 µg/mL (≈ 1.18 µM)
N#Cc1ccc(NC(=O)c2cc3cccc4c3n2CCC4Oc2ccccc2)c(C(=O)O)c1 (stereo not shown)	0.25 µg/mL (≈ 0.571 µM)
